Test results published in patent publication EP4790066A1, “GLP-1R/GIPR/GCGR TRIPLE AGONIST ANALOGUE AND USE THEREOF” (Shenzhen Bay Laboratory, priority 2023, dated 2025).
*1 amine or outer side, *2 acyl side, *3 side chain or, on linkers, in order; H or OH if unused. Where a SMILES comes first, the peptide text is derived from it. Bridges are numbered along the chain shown (N, C = ends). [ ]: non-standard residue; d: D form. X1 = O=C(O)CCCCCCCCCCCCCCCCCCC(=O)N[C@@H](CCCCNC(=O)COCCOCCNC(=O)COCCOCCNC(=O)CCC(=O)N(CCNC(=O)C[*:1])CCNC(=O)C[*:2])C(=O)O; Phe(2-F) = N[C@@H](Cc1ccccc1F)C(=O)O; αMeL = CC(C)C[C@](C)(N)C(=O)O; αMeK = C[C@](N)(CCCCN)C(=O)O; αMeS = C[C@](N)(CO)C(=O)O; Aib = CC(C)(N)C(=O)O

Assays:
GCGR [1] = biological target: T1, GCGR (Homo sapiens, UniProt P47871); test: cAMP method (HTRF cAMP detection kit), HEK293/pGM-CREB-L-Luc/GCG pool; assay type: cell-based; conditions: read-out: EC50 (pM) for each receptor GCGR
T1 construct: expressed in transfected cells
Procedure: (§1) 2. Insulinotropic analogues can bind to target receptors on the cell membrane, activate the receptors, and induce release. The activity of the test substance can be determined using the HTRF method with a cAMP detection kit. Therefore, the cAMP method can be used to detect the target peptide derivatives (or polypeptide derivatives, i.e., TG1-TG86) prepared in Example 1 and Example 2. […] The test cell line was selected, treated with cAMP-specific trypsin for digestion. 3 mL of serum-free DMEM culture medium was added, and the cells were pipetted, resuspended, and counted. 5 µL of IBMX (prepared with serum-free DMEM medium, 0.5 mM) and test cells (5 µL/7500 cells/well) were added in a 384-well plate sequentially. The plate was incubated at 37°C under 5% CO2 for 30 min, followed by the addition of cAMP-d2 (5 µL, 1x) and Anti-cAMP-Cryptate (5 µL, 1x). The mixture was kept at room temperature for 1 h, after which the HTRF value was measured using a chemiluminescent microplate reader, and the determination result was recorded. […] Table 4: EC50 values for target peptide derivatives

GCGR [2] = biological target: T1, GCGR; test: CreLuc method (CRE-luciferase reporter), 293HEK/pGM-CREB-L-Luc/GCGR pool; assay type: cell-based; conditions: 6 h incubation, read-out: EC50 (pM) for each receptor GCGR
Procedure, shortened: (§2)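 Stable HEK293 pools co-expressing each receptor with a CRE-luciferase reporter were plated at 20,000 cells/well in freestyle medium and treated with compound dilution series for 6 h at 37 °C. Luminescence was read with ONE-GLO to derive EC50.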

GLP-1R = biological target: T2, GLP-1R (Homo sapiens, UniProt P43220); test: CreLuc method (CRE-luciferase reporter), HEK293/pGM-CREB-L-Luc/GLP-1R pool; assay type: cell-based; conditions: 6 h incubation, read-out: EC50 (pM) for each receptor GLP-1R
T2 construct: expressed in transfected cells
Procedure, shortened: as §2

GIPR [3] = biological target: T3, GIPR (Homo sapiens, UniProt P48546); test: CreLuc method (CRE-luciferase reporter), HEK293/pGM-CREB-L-Luc/GIPR pool; assay type: cell-based; conditions: 6 h incubation, read-out: EC50 (pM) for each receptor GIPR
T3 construct: expressed in transfected cells
T3 sequence (P48546 22-466): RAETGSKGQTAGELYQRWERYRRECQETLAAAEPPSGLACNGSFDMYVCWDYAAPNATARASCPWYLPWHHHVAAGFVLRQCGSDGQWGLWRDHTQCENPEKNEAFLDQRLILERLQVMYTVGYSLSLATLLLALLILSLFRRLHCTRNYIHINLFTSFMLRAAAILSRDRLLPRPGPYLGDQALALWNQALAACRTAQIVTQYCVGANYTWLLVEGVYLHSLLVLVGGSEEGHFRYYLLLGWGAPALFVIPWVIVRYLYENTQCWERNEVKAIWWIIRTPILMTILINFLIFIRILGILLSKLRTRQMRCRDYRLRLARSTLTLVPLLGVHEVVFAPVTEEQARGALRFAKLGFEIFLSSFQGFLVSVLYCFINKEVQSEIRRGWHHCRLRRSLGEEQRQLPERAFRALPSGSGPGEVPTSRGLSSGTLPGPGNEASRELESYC
Procedure, shortened: as §2

GIPR [4] = biological target: T3, GIPR; test: cAMP method (HTRF cAMP detection kit), HEK293/pGM-CREB-L-Luc/GIP pool; assay type: cell-based; conditions: read-out: EC50 (pM) for each receptor GIPR
Procedure: as §1

in vivo = test: in vivo; design: species or system male SD rats; conditions: rat
Procedure: The pharmacokinetic behavior of target peptide derivatives (or polypeptide derivatives) prepared in Example 1 and Example 2, i.e., TG1-TG94 in rodents was tested. The specific steps are as follows:
The target peptide derivatives (TG1-TG94) to be tested were administered to male SD rats via subcutaneous injection (SC, 3 mg/kg; drug vehicle: PBS, concentration: 1.5 mg/mL; administration volume: 2 mL) and intravenous injection (IV, 1 mg/kg; drug vehicle: PBS, concentration: 0.5 mg/mL; administration volume: 2 mL) as a single dose, respectively. Whole blood samples were collected from the jugular vein or other appropriate vein at the following time points after administration: for SC, 15 min, 30 min, 1 h, 2 h, 4 h, 6 h, 8 h, 24 h, 48 h, 72 h, 96 h, 120 h, and 168 h; for IV, 5 min, 15 min, 30 min, 1 h, 2 h, 4 h, 8 h, 24 h, 48 h, 72 h, 96 h, 120 h, and 168 h. 0.2 mL of blood was collected and transferred into a labeled EDTA-K2 anticoagulant tube. The tube was gently inverted to ensure thorough mixing of the anticoagulant (EDTA-K2) with the blood and immediately placed on wet ice. Plasma separation was performed as soon as possible by centrifugation under the following conditions: 4°C, 6800xg, for 6 min. The plasma samples were stored in a refrigerator at no higher than -20°C and used for analysis when needed.
Under the condition of yellow light in an ice-water bath, except for blank samples, 300 µL of precipitant containing an internal standard was added to a 96-well plate containing 20 µL of standard curve sample, quality control sample, or unknown sample; 300 µL of acetonitrile was added to the blank sample. The mixture was vortexed, mixed well, and then centrifuged. 150 µL of the supernatant after centrifugation was transferred to a new 96-well plate, and 150 µL of ultrapure water was added and mixed well. The above samples were subjected to quantitative analysis using LC-MS analysis with XB-C18 (2.1 * 100 mm, 3 µm) chromatography for gradient elution. The mobile phases used were: mobile phase A = 0.1% formic acid-water; mobile phase B = acetonitrile. Phoenix WinNonlin software was used to calculate the pharmacokinetic parameters. […] Table 5A: Pharmacokinetic parameters of target peptide derivatives

T2 sequence (P43220 24-463, species assumed): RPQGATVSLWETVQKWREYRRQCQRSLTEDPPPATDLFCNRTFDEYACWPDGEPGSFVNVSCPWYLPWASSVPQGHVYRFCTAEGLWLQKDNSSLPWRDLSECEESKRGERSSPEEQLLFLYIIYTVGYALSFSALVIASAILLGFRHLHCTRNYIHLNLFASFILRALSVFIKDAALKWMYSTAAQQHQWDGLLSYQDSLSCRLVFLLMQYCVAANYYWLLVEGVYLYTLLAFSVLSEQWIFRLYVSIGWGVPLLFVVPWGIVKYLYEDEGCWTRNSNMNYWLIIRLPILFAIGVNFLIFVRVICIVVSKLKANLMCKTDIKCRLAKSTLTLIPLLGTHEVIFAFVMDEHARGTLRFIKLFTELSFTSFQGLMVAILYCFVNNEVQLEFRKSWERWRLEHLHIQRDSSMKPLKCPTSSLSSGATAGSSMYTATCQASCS
T1 sequence (P47871 26-477, species assumed): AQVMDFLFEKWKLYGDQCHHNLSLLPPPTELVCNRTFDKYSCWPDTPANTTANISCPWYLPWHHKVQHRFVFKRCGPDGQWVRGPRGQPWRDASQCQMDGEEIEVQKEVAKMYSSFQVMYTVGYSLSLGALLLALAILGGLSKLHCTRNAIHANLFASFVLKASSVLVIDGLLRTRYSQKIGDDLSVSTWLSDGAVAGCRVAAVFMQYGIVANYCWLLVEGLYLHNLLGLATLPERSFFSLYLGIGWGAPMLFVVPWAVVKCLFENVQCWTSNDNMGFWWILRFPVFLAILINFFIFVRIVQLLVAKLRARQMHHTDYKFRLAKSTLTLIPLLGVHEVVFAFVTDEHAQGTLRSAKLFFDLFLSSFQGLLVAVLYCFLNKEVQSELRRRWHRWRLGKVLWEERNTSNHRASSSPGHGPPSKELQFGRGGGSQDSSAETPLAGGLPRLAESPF

CC[C@H](C)[C@H](NC(=O)[C@H](Cc1ccccc1)NC(=O)[C@H](C)NC(=O)[C@@H]1CSCC(=O)NCCN(C(=O)CCC(=O)NCCOCCOCC(=O)NCCOCCOCC(=O)NCCCC[C@H](NC(=O)CCCCCCCCCCCCCCCCCCC(=O)O)C(=O)O)CCNC(=O)CSC[C@H](NC(=O)[C@H](CCCCN)NC(=O)[C@H](CC(=O)O)NC(=O)[C@H](CC(C)C)NC(=O)[C@](C)(CC(C)C)NC(=O)[C@@H](NC(=O)[C@H](CO)NC(=O)[C@H](Cc2ccc(O)cc2)NC(=O)[C@H](CC(=O)O)NC(=O)[C@H](CO)NC(=O)[C@@H](NC(=O)[C@H](Cc2ccccc2F)NC(=O)[C@@H](NC(=O)CNC(=O)[C@H](CCC(N)=O)NC(=O)C(C)(C)NC(=O)[C@@H](N)Cc2ccc(O)cc2)[C@@H](C)O)[C@@H](C)O)[C@@H](C)CC)C(=O)N[C@@H](C)C(=O)N[C@@H](CCC(N)=O)C(=O)N1)C(=O)N[C@@H](CCC(=O)O)C(=O)N[C@@H](Cc1ccc(O)cc1)C(=O)N[C@@H](CC(C)C)C(=O)N[C@@H](CC(C)C)C(=O)N[C@@H](C)C(=O)NCC(=O)NCC(=O)N1CCC[C@H]1C(=O)N[C@@H](CO)C(=O)N[C@@H](CO)C(=O)NCC(=O)N[C@@H](C)C(=O)N1CCC[C@H]1C(=O)N1CCC[C@H]1C(=O)N1CCC[C@H]1C(=O)N[C@@H](CO)C(N)=O [TG59] (H-Y[Aib]QGT[Phe(2-F)]TSDYSI[αMeL]LDKCAQCAFIEYLLAGGPSSGAPPPS-NH2; linker 17-20 via X1)
EC50 (GCGR [1]): 9.1 pM | EC50 (GCGR [2]): 392 pM | EC50 (GLP-1R): 51.8 pM | EC50 (GIPR [3]): 30.7 pM | EC50 (GIPR [4]): 3.9 pM

CC[C@H](C)[C@H](NC(=O)[C@H](Cc1ccccc1)NC(=O)[C@H](C)NC(=O)[C@@H]1CSCC(=O)NCCN(C(=O)CCC(=O)NCCOCCOCC(=O)NCCOCCOCC(=O)NCCCC[C@H](NC(=O)CCCCCCCCCCCCCCCCCCC(=O)O)C(=O)O)CCNC(=O)CSC[C@H](NC(=O)[C@](C)(CCCCN)NC(=O)[C@H](CC(=O)O)NC(=O)[C@H](CC(C)C)NC(=O)[C@](C)(CC(C)C)NC(=O)[C@@H](NC(=O)[C@](C)(CO)NC(=O)[C@H](Cc2ccc(O)cc2)NC(=O)[C@H](CC(=O)O)NC(=O)[C@H](CO)NC(=O)[C@@H](NC(=O)[C@H](Cc2ccccc2F)NC(=O)[C@@H](NC(=O)CNC(=O)[C@H](CCC(N)=O)NC(=O)C(C)(C)NC(=O)[C@@H](N)Cc2ccc(O)cc2)[C@@H](C)O)[C@@H](C)O)[C@@H](C)CC)C(=O)N[C@@H](C)C(=O)N[C@@H](CCC(N)=O)C(=O)N1)C(=O)N[C@@H](CCC(=O)O)C(=O)N[C@@H](Cc1ccc(O)cc1)C(=O)N[C@@H](CC(C)C)C(=O)N[C@@H](CC(C)C)C(=O)N[C@@H](C)C(=O)NCC(=O)NCC(=O)N1CCC[C@H]1C(=O)N[C@@H](CO)C(=O)N[C@@H](CO)C(=O)NCC(=O)N[C@@H](C)C(=O)N1CCC[C@H]1C(=O)N1CCC[C@H]1C(=O)N1CCC[C@H]1C(=O)N[C@@H](CO)C(N)=O [TG62] (H-Y[Aib]QGT[Phe(2-F)]TSDY[αMeS]I[αMeL]LD[αMeK]CAQCAFIEYLLAGGPSSGAPPPS-NH2; linker 17-20 via X1)
EC50 (GCGR [1]): 62.2 pM | EC50 (GCGR [2]): 783 pM | EC50 (GLP-1R): 371 pM | EC50 (GIPR [3]): 27.9 pM | EC50 (GIPR [4]): 6 pM

CC[C@H](C)[C@H](NC(=O)[C@H](Cc1ccccc1)NC(=O)[C@H](C)NC(=O)[C@@H]1CCCCNC(=O)CN(C(=O)CCCNC(=O)COCCOCCNC(=O)COCCOCCNC(=O)CC[C@H](NC(=O)CCCCCCCCCCCCCCCCCCC(=O)O)C(=O)O)CC(=O)NCCCC[C@H](NC(=O)[C@H](CCCCN)NC(=O)[C@H](CC(=O)O)NC(=O)[C@H](CC(C)C)NC(=O)[C@](C)(CC(C)C)NC(=O)[C@@H](NC(=O)[C@H](CO)NC(=O)[C@H](Cc2ccc(O)cc2)NC(=O)[C@H](CC(=O)O)NC(=O)[C@H](CO)NC(=O)[C@@H](NC(=O)[C@H](Cc2ccccc2F)NC(=O)[C@@H](NC(=O)CNC(=O)[C@H](CCC(N)=O)NC(=O)C(C)(C)NC(=O)[C@@H](N)Cc2ccc(O)cc2)[C@@H](C)O)[C@@H](C)O)[C@@H](C)CC)C(=O)N[C@@H](C)C(=O)N[C@@H](CCC(N)=O)C(=O)N1)C(=O)N[C@@H](CCC(=O)O)C(=O)N[C@@H](Cc1ccc(O)cc1)C(=O)N[C@@H](CC(C)C)C(=O)N[C@@H](CC(C)C)C(=O)N[C@@H](C)C(=O)NCC(=O)NCC(=O)N1CCC[C@H]1C(=O)N[C@@H](CO)C(=O)N[C@@H](CO)C(=O)NCC(=O)N[C@@H](C)C(=O)N1CCC[C@H]1C(=O)N1CCC[C@H]1C(=O)N1CCC[C@H]1C(=O)N[C@@H](CO)C(N)=O [TG87]
EC50 (GCGR [2]): 172 pM | EC50 (GLP-1R): 171 pM | EC50 (GIPR [3]): 27.6 pM | AUC(0-inf) (in vivo; male, SD, iv, 1 mg/kg): 257 µg·h/mL | AUC(0-t) (in vivo; male, SD, iv, 1 mg/kg): 254 µg·h/mL | MRT (in vivo; male, SD, iv, 1 mg/kg): 21.4 h | Vd (in vivo; male, SD, iv, 1 mg/kg): 0.0891 L/kg | clearance (in vivo; male, SD, iv, 1 mg/kg): 0.0706 mL/min/kg | half-life (in vivo; male, SD, iv, 1 mg/kg): 13.9 h | bioavailability (in vivo; male, SD, sc): 31.8% | AUC(0-inf) (in vivo; male, SD, sc, 3 mg/kg): 245 µg·h/mL | AUC(0-t) (in vivo; male, SD, sc, 3 mg/kg): 243 µg·h/mL | CL/F (in vivo; male, SD, sc, 3 mg/kg): 0.204 mL/min/kg | Cmax (in vivo; male, SD, sc, 3 mg/kg): 4880 ng/mL | MRT (in vivo; male, SD, sc, 3 mg/kg): 32.3 h | Tmax (in vivo; male, SD, sc, 3 mg/kg): 24 h | half-life (in vivo; male, SD, sc, 3 mg/kg): 15.6 h | AUC0-t /AUC0-inf (in vivo; iv, 1 mg/kg): 0.989 | Kel (in vivo; iv, 1 mg/kg): 0.0504 h⁻¹ | AUC0-t /AUC0-inf (in vivo; sc, 3 mg/kg): 0.993 | Vz/F (in vivo; sc, 3 mg/kg): 0.276 L/kg
